This is an account of results in ChEMBL document CHEMBL5247589, “Natural occurrence, bioactivity, and biosynthesis of triene-ansamycins” (Eur J Med Chem, 2022).

Converted amounts (≈) assume the structure as drawn.

Data set [1] is described as follows: Cytotoxicity against human WI-38 cells assessed as cell growth incubated for 1 day by MTT assay. In kind it is toxicity, cell-based. For orientation: Formazan colour is commonly taken as a measure of viable cells.
Data set [2] has as its system HL-60. Description: Antitumor activity against human HL60 cells assessed as cell growth incubated for 1 day by MTT assay. The class given is functional, cell-based. As to conditions: HL-60, 24 h.
Data set [3] deals with HL-60. Description: Induction of apoptosis in human HL-60 cells assessed as effective dose. As to conditions: read-out: ED50 (the source's name). The class given is functional.
Another data set has as its system BXPC-3. In words: Antitumor activity against human BXPC-3 cells incubated for 48 to 72 hrs by MTS Assay. The class given is functional, cell-based.
Data set [4] has as its system HepG2. Description: Antitumor activity against human HepG2 cells incubated for 72 hrs by SRB calorimetric assay. The class given is functional, cell-based. As to conditions: HepG2, 72 h. For orientation: The SRB assay estimates cell density from bound dye.
The next data set deals with PANC-1. Description: Antitumor activity against human PANC-1 cells incubated for 48 to 72 hrs by MTS Assay. The class given is functional, cell-based.
The test system of a further data set is PC-3. Description: Antitumor activity against human PC-3 cells incubated for 72 hrs by SRB calorimetric assay. The class given is functional, cell-based. As to conditions: PC-3, 72 h.
Another data set deals with Capan-2. In words: Antitumor activity against human Capan-2 cells incubated for 48 to 72 hrs by MTS Assay. In kind it is functional, cell-based.
Data set [5] in a line: Inhibition of bovine brain FTase. More on the design: species or system Bos taurus.
In another data set the test system is HeLa. Description: Antitumor activity against human HeLa cells. In kind it is functional, cell-based.
Data set [6] deals with A549. Description: Antitumor activity against human A549 cells incubated for 72 hrs by MTT assay. In kind it is functional, cell-based. As to conditions: A549, 72 h.
Data set [7] deals with MCF7. Description: Antitumor activity against human MCF7 cells incubated for 72 hrs by MTT assay. As to conditions: MCF7, 72 h. The class given is functional, cell-based.
The subject of data set [8] is K562. In words: Antitumor activity against human K562 cells incubated for 24 hrs by CCK-8 assay. In kind it is functional, cell-based. As to conditions: K562, 24 h.
The subject of the next data set is Cyberlindnera jadinii. Description: Antifungal activity against Cyberlindnera jadinii IFO 0396 assessed as inhibition of fungal growth incubated for 72 hrs by broth dilution method. In kind it is functional. As to conditions: Williopsis jadinii. (In broth dilution the organism is exposed to a series of concentrations in liquid medium.)
The next data set has as its system Pichia kudriavzevii. In words: Antifungal activity against Pichia kudriavzevii IFO 0590 assessed as inhibition of fungal growth incubated for 72 hrs by broth dilution method. In kind it is functional.
Data set [9] deals with L5178Y. Description: Cytotoxicity against mouse L5178Y cells. In kind it is functional.
The next data set deals with Penicillium chrysogenum. In words: Antifungal activity against Penicillium chrysogenum1AM 7106 assessed as inhibition of fungal growth incubated for 72 hrs by broth dilution method. As to conditions: 1AM 7106. In kind it is functional.
Data set [10] is described as follows: Toxicity in CDF1 mouse allografted with mouse […] cells assessed as lethal dose administered for 6 days ,ip. In kind it is cell-based. As to conditions: in vivo, time 6 day.
In the next data set the test system is Aspergillus japonicus. In words: Antifungal activity against Aspergillus japonicus IAM 2016 assessed as inhibition of fungal growth incubated for 72 hrs by broth dilution method. In kind it is functional.
For a further data set, the system named is Rhizomucor pusillus. In words: Antifungal activity against Rhizomucor pusillus IAM 6122 assessed as inhibition of fungal growth incubated for 72 hrs by broth dilution method. In kind it is functional.
The next data set concerns Rhizopus delemar. In words: Antifungal activity against Rhizopus delemar IAM 6015 assessed as inhibition of fungal growth incubated for 72 hrs by broth dilution method. In kind it is functional.
A further data set concerns Saccharomyces cerevisiae. In words: Antifungal activity against Saccharomyces cerevisiae IFO 0304 assessed as inhibition of fungal growth incubated for 72 hrs by broth dilution method. In kind it is functional.
In data set [11] the test system is L5178Y. In words: Cytotoxicity against mouse L5178Y. The class given is toxicity, cell-based.
Data set [12] has as its system K562. Description: Cytotoxicity against human K562 cells incubated for 24 hrs by CCK-8 assay. In kind it is functional, cell-based. As to conditions: K562, 24 h.
Data set [13] deals with A549. In words: Cytotoxicity against human A549 cells incubated for 72 hrs by MTT assay. In kind it is functional, cell-based. As to conditions: A549, 72 h.
For another data set, the system named is U-937. Description: Antitumor activity against human U937 cells. The class given is functional, cell-based.
A further data set has as its system THP-1. Description: Antitumor activity against human THP1 cells. In kind it is functional, cell-based.
The test system of another data set is HCT-116. In words: Antitumor activity against human HCT116 cells. In kind it is functional, cell-based.
For a further data set, the system named is B16. Description: Antitumor activity against mouse B-16 cells. In kind it is functional, cell-based.
The test system of data set [14] is HL-60. In words: Antitumor activity against human HL60 cells. The class given is functional, cell-based.
The test system of another data set is HT-29. Description: Antitumor activity against human HT29 cells. The class given is functional, cell-based.
Data set [15] concerns MCF7. In words: Antitumor activity against human MCF-7 incubated for 48 hrs by MTT assay. The class given is functional, cell-based. As to conditions: MCF7, 48 h.
The test system of data set [16] is HepG2. Description: Antitumor activity against human HepG2 incubated for 48 hrs by MTT assay. In kind it is functional, cell-based. As to conditions: HepG2, 48 h.

As to `CO[C@H]1/C=C/C=C/C=C/C[C@H](OC(=O)C2(NC(=O)C3CCCCC3)CC2)[C@H](C)[C@@H](O)/C(C)=C\CCc2cc(O)cc(c2O)NC(=O)C1`, in [1], the IC50 – broadly, the concentration that gives 50% inhibition – at 1 day stood at 0.0077 µM. Besides, in the data set on HL-60 [2], the IC50 worked out at 0.0077 µM. In the data set on HL-60 [3], the EC50 is 7.7 µM.

As to `CO[C@H]1/C=C/C=C/C=C/C[C@H](O)[C@H](C)[C@@H](OC(=O)[C@@H](C)NC(=O)C(C)C)/C(C)=C\CCc2cc(O)cc(c2)NC(=O)C1`, the concentration for half-maximal inhibition (IC50) in the data set on BXPC-3, in the data set with HepG2 [4], in the data set with PANC-1, in the data set with PC-3 and in the data set with Capan-2 was more than 10 µM each time.

In the case of `C/C=C(\C)C(=O)N[C@H](C)C(=O)O[C@H]1C/C=C/C=C/C=C/[C@H](OC)CC(=O)Nc2cc(O)cc(c2O)CC/C=C(/C)[C@H](O)[C@H]1C`, the IC50 in data set [5] worked out at 0.6 µg/mL (≈ 0.982 µM).

Regarding `CO[C@H]1/C=C/C=C/C=C/C[C@H](OC(=O)[C@@H](C)NC(=O)C2CCCCC2)[C@H](C)[C@@H](O)/C(C)=C\CCc2cc(O)c(SC)c(c2O)NC(=O)C1`, in the data set with HeLa, it took 0.015 µM to reach half-maximal inhibition (IC50).

With `CO[C@H]1/C=C/C=C/C=C/C[C@H](O)[C@H](C)[C@@H](O)/C(C)=C\CCc2cc(O)cc(c2)NC(=O)C1`, the IC50 in the data set on A549 [6], with MCF7 [7] and with K562 [8] was more than 10 µM throughout.

Take `CO[C@H]1/C=C/C=C/C=C/C[C@H](OC(=O)[C@@H](C)NC(=O)C2CCCCC2)[C@H](C)[C@@H](O)/C(C)=C\CCC2=CC(=O)C=C(NC(=O)C1)C2=O`: the MIC in the data set with Cyberlindnera jadinii was 4 µg/mL (≈ 6.28 µM); in the data set with Pichia kudriavzevii it was 4 µg/mL (≈ 6.28 µM); against L5178Y [9] it was 0.11 µg/mL (≈ 0.173 µM); in the data set with Penicillium chrysogenum, 4 µg/mL (≈ 6.28 µM); in the data set on Aspergillus japonicus it was 4 µg/mL (≈ 6.28 µM); with Rhizomucor pusillus, 4 µg/mL (≈ 6.28 µM). Moreover, the values for the MIC in the data set with Rhizopus delemar, in the data set on Saccharomyces cerevisiae and in the data set with L5178Y [11] were 4 µg/mL (≈ 6.28 µM), 4 µg/mL (≈ 6.28 µM) and 1.25 µM (≈ 0.796 µg/mL), respectively. Besides, the 50% lethal dose (LD50) (usually the dose expected to kill half of the subjects tested) at 144 h in [10] was determined as 56 mg/kg.

Turning to `CO[C@H]1/C=C/C=C/C=C/C[C@H](OC(=O)[C@@H](C)NC(C)=O)[C@H](C)[C@@H](O)/C(C)=C\CCc2cc(O)cc(c2)NC(=O)C1`, the IC50 in the data set with A549 [6] is more than 10 µM; in the data set with K562 [12] it was 23 µM; with MCF7 [7] it was more than 10 µM; in the data set with K562 [8] it was more than 10 µM; in the data set on A549 [13], 15 µM.

For `CO[C@H]1/C=C/C=C/C=C/C[C@H](OC(=O)C2(NC(=O)C3=CCCCC3)CC2)[C@H](C)[C@@H](O)/C(C)=C\CCc2cc3c(c(c2O)NC(=O)C1)SCC(=O)N3`, the IC50 in the data set with U-937, in the data set with THP-1, with HCT-116, in the data set with B16, in the data set with HL-60 [14] and in the data set with HeLa was 0.05 µM each time. The same molecule had an IC50 with HT-29 of 0.05 µM.

Consider `CO[C@H]1/C=C/C=C/C=C/C[C@H](OC(=O)[C@@H](C)NC(=O)C2CCCC2)[C@H](C)[C@@H](O)/C(C)=C\CCc2cc(O)cc(c2)NC(=O)C1`, for which the IC50 in the data set on MCF7 [15] and in the data set on HepG2 [16] was not below 6.81 µM throughout.

`CO[C@H]1/C=C/C=C/C=C/C[C@H](OC(=O)[C@@H](C)NC(=O)C2CCCCC2)[C@H](C)[C@@H](O)/C(C)=C\CCc2cc(O)cc(c2O)NC(=O)C1`: the MIC with Cyberlindnera jadinii was determined as 4 µg/mL (≈ 6.26 µM); in the data set with Pichia kudriavzevii, 4 µg/mL (≈ 6.26 µM); against L5178Y [9], 0.11 µg/mL (≈ 0.172 µM); in the data set with Penicillium chrysogenum, 4 µg/mL (≈ 6.26 µM); in the data set on Aspergillus japonicus, 4 µg/mL (≈ 6.26 µM); with Rhizomucor pusillus it was 4 µg/mL (≈ 6.26 µM). The MIC in the data set on Rhizopus delemar and with Saccharomyces cerevisiae was 4 µg/mL (≈ 6.26 µM) each time. In addition, the median lethal dose (LD50) at 144 h in data set [10] came to 80 mg/kg.

For `CO[C@H]1/C=C/C=C/C=C/C[C@H](OC(=O)[C@@H](C)NC(=O)C2CC2)[C@H](C)[C@@H](O)/C(C)=C\CCc2cc(O)cc(c2)NC(=O)C1`, the IC50 in the data set on MCF7 [15] and in the data set with HepG2 [16] was more than 10 µM in each case.
